Test results: paper PMC8998618, “A Pharmacokinetic and Metabolism Study of the TRPC6 Inhibitor SH045 in Mice by LC-MS/MS” (International Journal of Molecular Sciences, 2022)
Like-named read-outs stand apart in the source and are kept apart here.

Experiment: plasma pharmacokinetics after single i.v. and p.o. administration, NCA
Format: in vivo, mice
Conditions: for increase in AUCinf with 10-fold dosing / increase in cmax with 10-fold dosing: 20 vs 2 mg/kg BW; for Cmax / Tmax / AUC(0-inf) / AUC(0-t) / MRT / half-life / bioavailability / CL/F / Vd/F / AUCextra / Vz/F: plasma; for bioavailability: from AUCinf, read-out: oral bioavailability (F); for Vd/F: read-out: Vz/F
Protocol: Analysis of SH045 in samples from plasma, tissue, urine, and microsomal incubations was performed as previously described. Details are described in Supplementary Materials SM2.
Male C57BL/6 mice (25–30 g BW, Charles River, Sulzfeld, Germany) housed in groups under standard conditions and allowed access to lab chow and water ad libitum were used. The in vivo experiments were performed according to the national regulations of animal welfare and were ethically approved by the local committee on animal welfare and the local authorities. Animal experiments were performed under strict consideration of the 3R principles, fully complying with the ARRIVE guidelines. For single SH045 administration mice were assigned to four groups of 12 animals each: 2 and 20 mg/kg BW applied via the i.v. and the p.o. route, respectively. Due to the recommended limited volume for blood collection, each mouse was assigned to a maximum of five different time points each out of 8 (for p.o.) and 9 (for i.v.) for blood collection resulting in six independent plasma concentration values per time point.
SH045 was freshly prepared with DMSO (final concentration 0.5%) and Kolliphor® EL (5% in water). At 7:00 a.m., one hour before drug administration, food was removed. For oral gavage and for i.v. administration into the tail vein the respective dose was applied in a volume of 3 mL/kg BW.
Via heparin-coated catheters a maximum of 50 µL blood was collected from the tail vein at 0.25, 0.5, 1, 2, 3, 4, 6, 8, or 24 h after administration and immediately centrifuged at 4000× g at 4 °C for 10 min. For repeated administration 20 mg/kg BW SH045 were administered at 8:00 a.m. on five consecutive days, once a day. Blood was taken 1 h and 24 h after drug administration. Tissue samples were harvested from isoflurane-euthanized animals at indicated time points. Mice were transcardially perfused with PBS and dissected tissues were washed to remove remaining blood. Plasma and tissue samples were stored at −80 °C until analysis. Urine was collected by bladder puncture at indicated time points.
Pharmacokinetics parameters for SH045 were determined based on non-compartmental model analysis (NCA) using the Phoenix WinNonlin Software 8.3 (Certara, Princeton, NJ, USA). The slope of the terminal phase of the SH045 concentration-time profile (λz) was estimated as absolute values from ≥3 data points using a log-linear regression analysis. The area under the concentration-time curve (AUC) for the time (t) providing the final measurable concentration (AUClast) was calculated using the mixed log-linear trapezoidal rule (linear up, log down). The AUCinf was computed as AUClast + Clast/λz, where the estimated value of the latest data point is used. The systemic total body clearance from plasma (CLp) was calculated as applied dose divided by AUCinf. MRT was calculated as AUMCinf/AUCinf, where area under the first moment curve (AUMC) was defined as area under the curve of the product of time and the plasma drug concentration versus time from zero to infinity. Finally, the AUCextra extrapolates the AUC from the last measured time point to infinity. Vz, the apparent volume of distribution during terminal elimination phase was calculated by Vz = Dose/AUCinf × λz, where λz is the plasma elimination rate constant. The apparent volume of distribution during the terminal phase following extravascular administration based on the fraction of dose absorbed Vz/F = Dose/(AUCinf × λz). The bioavailability (F) of two oral doses SH045 doses were calculated with reference to identical doses administered by intravenous bolus application of SH045 as follows: F = AUCoral/AUCi.v. Tissue binding of SH045 was analyzed exemplarily in lung, liver and kidney homogenate using ultrafiltration. The concentration in the filtrate refers to the unbound SH045 concentration according to tissue binding (%) = (ctot − cfiltrate)/ctotal × 100. For details see Supplementary Materials SM5.

[1] = male, C57BL/6, mouse, iv, mice, single 2.0 mg/kg BW i.v.
[2] = male, C57BL/6, mouse, iv, mice, single 2.0 mg/kg BW i.v., NCA
[3] = male, C57BL/6, mouse, iv, mice, single 20 mg/kg BW i.v.
[4] = male, C57BL/6, mouse, iv, mice, single 20 mg/kg BW i.v., NCA
[5] = male, C57BL/6, mouse, po, mice, single 2.0 mg/kg BW p.o.
[6] = male, C57BL/6, mouse, po, mice, single 2.0 mg/kg BW p.o., NCA
[7] = male, C57BL/6, mouse, po, mice, single 20 mg/kg BW p.o.
[8] = male, C57BL/6, mouse, po, mice, single 20 mg/kg BW p.o., NCA
[9] = mice, single 2.0 mg/kg BW i.v., NCA
[10] = mice, single 20 mg/kg BW i.v., NCA

In the case of `C=C[C@@](C)(O)CC[C@H]1C(=C)C[C@H](OC(=O)NC)[C@H]2C(C)(C)CCC[C@]12C` [SH045, (1S,4S,4aR,8aS)-4-((S)-3-Hydroxy-3-methylpent-4-en-1-yl)-4a,8,8-trimethyl-3-methylenedecahydronaphthalen-1-yl methylcarbamate], the “total body clearance following oral administration with regard to oral bioavailability” value (2 mg/kg p.o.) is reported as 95 mL/min/kg, the “time up to which SH045 is measurable in plasma” value (20 mg/kg BW i.v.) is reported as “up to 24 h” and the “corresponding drug plasma concentration” value (20 mg/kg BW i.v., corresponding to urine period 10–30 min) is reported as 3035 nM. For the same compound, the “corresponding drug plasma concentration” value (20 mg/kg BW i.v., corresponding to urine period 60–80 min) was 1655 nM, the “corresponding drug plasma concentration” value (20 mg/kg BW i.v., corresponding to urine period 100–120 min) was 560 nM and the “accumulation of SH045 in plasma after repeated administration” value (20 mg/kg i.v. five times once a day, 1 and 24 h after the last injection) was “no accumulation”. The “AUCextra percentage, simulated recalculation including late low concentration values” (20 mg/kg i.v., NCA) was 0.8%, the “total body clearance following oral administration with regard to oral bioavailability” value (20 mg/kg p.o.) was 117 mL/min/kg and the “increase in AUCinf with 10-fold dosing” value (i.v.) was 8.1 fold. The “increase in cmax with 10-fold dosing” value (i.v.) was 6.5 fold, the Cmax [1] was 369 ng/mL and the Tmax [1] was 15 min. It also gave an AUC(0-inf) [2] of 351 ng·h/mL, an AUC(0-t) [2] of 338 ng·h/mL and an MRT [2] of 0.75 h. It also gave a half-life (male, C57BL/6, mouse, iv, mice, single 2.0 mg/kg BW i.v., NCA, read-out: t1/2 (converted)) of 76.8 min, a Cmax [3] of 2390 ng/mL and a Tmax [3] of 15 min. For the same compound, the AUC(0-inf) [4] was 2840 ng·h/mL, the AUC(0-t) [4] was 2720 ng·h/mL and the MRT [4] was 1.52 h. For the same compound, the half-life (male, C57BL/6, mouse, iv, mice, single 20 mg/kg BW i.v., NCA, read-out: t1/2 (converted)) was 142 min, the half-life (male, C57BL/6, mouse, intravenous, oral, range over both doses and routes, read-out: mean half-life (t1/2)) was 72 to 144 min and the bioavailability (male, C57BL/6, mouse, po, 2 mg/kg p.o.) was 24%. The bioavailability (male, C57BL/6, mouse, po, 20 mg/kg p.o.) was 11%, the Cmax [5] was 68.3 ng/mL and the Tmax [5] was 30 min. The AUC(0-inf) [6] was 84.2 ng·h/mL, the AUC(0-t) [6] was 69 ng·h/mL and the MRT [6] was 1.78 h. For the same compound, the CL/F (male, C57BL/6, mouse, po, mice, single 2.0 mg/kg BW p.o., NCA, read-out: CL/F) was 396 mL/min/kg, the Vd/F [6] was 39.5 L/kg and the half-life (male, C57BL/6, mouse, po, mice, single 2.0 mg/kg BW p.o., NCA, read-out: t1/2 (converted)) was 69 min. The Cmax [7] was 341 ng/mL, the Tmax [7] was 30 min and the AUC(0-inf) [8] was 314 ng·h/mL. The AUC(0-t) [8] was 298 ng·h/mL, the MRT [8] was 1.68 h and the CL/F (male, C57BL/6, mouse, po, mice, single 20 mg/kg BW p.o., NCA, read-out: CL/F) was 1060 mL/min/kg. It also gave a Vd/F [8] of 171 L/kg, a half-life (male, C57BL/6, mouse, po, mice, single 20 mg/kg BW p.o., NCA, read-out: t1/2 (converted)) of 112 min and an AUCextra [9] of 3.7%. For the same compound, the CL/F [9] was 94.9 mL/min/kg, the Vz/F [9] was 10.5 L/kg and the AUCextra (mice, single 2.0 mg/kg BW p.o., NCA) was 17.5%. For the same compound, the AUCextra [10] was 4.2%, the CL/F [10] was 117.2 mL/min/kg and the Vz/F [10] was 24.0 L/kg. For the same compound, the AUCextra (mice, single 20 mg/kg BW p.o., NCA) was 5.0%, the F (mice, single 2.0 mg/kg BW i.v. (reference route)) was 1.0 and the F (mice, single 2.0 mg/kg BW p.o., F = AUCoral/AUCi.v.) was 0.24. For the same compound, the F (mice, single 20 mg/kg BW i.v. (reference route)) was 1.0, the F (mice, single 20 mg/kg BW p.o., F = AUCoral/AUCi.v.) was 0.11 and the “increase in AUCinf with 10-fold dosing” value (oral) was 3.7 fold. The “increase in cmax with 10-fold dosing” value (oral) was 5.0 fold and the “time up to which SH045 is measurable in plasma” value (orally) was “up to 6 h”.
